{"source": "patent US20030032581A1", "about": "“Pharmaceuticals for treating obesity” (priority 1999, published 2003)", "key": {"3T3-L1 cells": {"tested_on": "3T3-L1 cells", "assay": "3T3-L1 preadipocyte differentiation (aP2 expression)", "format": "cell-based", "conditions": "Mus musculus, 3T3-L1, 120 h; 100 nM rosiglitazone, 5 days; read-out: IC50, block of rosiglitazone stimulated aP2 expression", "method": "3T3-L1 cells were obtained from American Type Culture Collection. Passage numbers 3 to 9 were used in all the studies. Monolayer fibroblasts were maintained in medium A (Dulbecco's modified Eagle's medium with 10% fetal calf serum, 100 units/ml penicillin, and 100 μg/ml streptomycin) at 37° C. in 5% CO2. […] Total RNA was prepared using Ultraspec™ RNA isolation system (Biotecx, Houston, Tex.). RNA concentration was quantitated by absorbance at 260 nm. Equal amount of RNA samples were denatured in formamide/formaldehyde and applied to Hybond™-N membranes (Amersham) using a slot blot apparatus (BioRad). Prehybridization was performed at 42° C. for 1-3 h in 40-50% formamide in a solution containing 25 mM sodium phosphate, pH 7.4, 0.9 M sodium chloride, 50 mM sodium citrate, 0.1% each of gelatin, ficoll, and polyvinylpyrollidone, 0.5% SDS, and 100 μg/ml denatured salmon sperm DNA. Hybridization was carried out at the same temperature for 20h in the same solution with ^32P-labeled aP2 cDNA probe (2×10^6 cpm/ml). After washing the membranes under appropriately stringent conditions, the hybridization signals were analyzed with a Phosphorlmager (Molecular Dynamics)."}, "fat-fed C57BL/6J mice": {"tested_on": "fat-fed C57BL/6J mice", "assay": "Fat-fed C57BL/6J mice, obesity and metabolic parameters", "format": "in vivo", "conditions": "HF diet + 50 mg/kg/day", "method": "At the end of that time the animals had gained 16g, 22 g and 20.5 g, respectively (FIG. 3). […] Analysis of whole body triglyceride content and protein content were performed as described in Moller et al (Endocrinology 137:2397-2405, 1996). […] Thus, treatment with the PPARγ antagonist caused relative decreases in body adiposity and increases in lean body mass in fat fed mice. The plasma levels of glucose, triglycerides and free fatty acid levels were all increased in the HF group relative to the LF group (see Table below)."}, "ob/ob mice": {"tested_on": "ob/ob mice", "assay": "ob/ob mice, plasma insulin", "format": "in vivo", "conditions": "once daily dosing", "text": "The PPAR-gamma antagonists/partial agonists are therefore effective in treating the obesity and other symptoms that generally occur in non-insulin dependent diabetes, such as elevated levels of glucose, triglycerides, and insulin in the plasma."}}, "note": "Marks after values point to notes of the source that are not given here."}
{"compound": "O=C(O)c1c(Sc2ccccc2)c2cc(Cl)ccc2n1Cc1ccc(Cl)cc1", "note": "[Compound I, 1-(p-chlorobenzyl)-5-chloro-3-thiophenylindole-2-carboxylic acid]", "values": [{"measurement": "IC50", "setting": "3T3-L1 cells", "result": "~0.3", "unit": "µM"}, {"measurement": "body weight gained", "setting": "fat-fed C57BL/6J mice; 72 days", "result": 20.5, "unit": "g"}, {"measurement": "Plasma free fatty acids", "setting": "fat-fed C57BL/6J mice; mean +/- SE of 10 mice", "result": "0.536 +/− 0.02* mM"}, {"measurement": "Plasma glucose", "setting": "fat-fed C57BL/6J mice; mean +/- SE of 10 mice", "result": "145.6 +/− 4.1* mg/dl"}, {"measurement": "Plasma triglycerides", "setting": "fat-fed C57BL/6J mice; mean +/- SE of 10 mice", "result": "71.4 +/− 4.1** mg/dl"}, {"measurement": "Serum insulin", "setting": "fat-fed C57BL/6J mice; mean +/- SE of 10 mice", "result": "1.35 ± 0.21", "unit": "ng/mL"}, {"measurement": "reduction in elevated levels of mean plasma insulin", "setting": "ob/ob mice", "result": "30-50%"}]}
